Measurements reported in PMC10721329, “Quisinostat is a brain-penetrant radiosensitizer in glioblastoma” (JCI Insight, 2023).
Where “and” joins values, the source holds several entries; their conditions need not be identical. Identical values can stand only once.

Key:
HDAC1 = details: cited from earlier work
[1] = system: primary human astrocytes (NHA); assay: Dose-response cell viability assay in normal astrocytes; assay type: cell-based; details: for Cell viability (fraction of DMSO control): NHA, 3 days
Experimental: GSCs were seeded in laminin-coated tissue culture–treated 96-well plates (clear bottom, white plate; Corning) at a density of 1000–5000 cells per well (cell line dependent) in GSC media. U87-MG were seeded using their normal growth conditions without laminin (10% bovine calf serum in DMEM). All cells were incubated at 37°C and allowed to adhere overnight. The next day, cells were treated with incremental concentrations of QST (Selleckchem; 0, 10, 25, 50, 100, 250, 500, and 1000 nM) diluted in media. Cells treated without QST were treated with DMSO diluted in media. Following treatment with QST, cells were grown for 3 to 5 days (cell line dependent), and cell viability was measured and quantified. All cell viability measurements were performed using the CellTiter-Glo luminescent cell viability assay (Promega) following the manufacturer’s instructions. For the sulforhodamine B colorimetric assay for cytotoxicity, the protocol was performed as described elsewhere ([33]). All cell viability results represent the mean of at least 3 biological replicates, each containing 3 technical replicates.
Supplemental Figure 5. QST induces cell death in tumor tissue but not surrounding normal
brain tissue in vivo. (A) Dose-response curves with QST (10–1000 nM) in primary human
astrocytes. Cell viability 3 days after treatment with QST. […]

orthotopic GB126 tumors = assay: RT-qPCR of neuronal genes in GB126 tumors; assay type: in vivo, athymic nude mice; details: relative to Vehicle mouse 1 = 1, individual mice
Experimental: Reverse Transcription Quantitative Polymerase Chain Reaction
Total RNA was extracted from orthotopic tumors by using the RNeasy Mini Kit (Qiagen) in accordance with the manufacturer’s instructions. RNA was quantified on a NanoDrop Spectrophotometer ([…]), and 1 μg of total RNA was used for complementary DNA synthesis by using the SuperScript VILO kit (Life Technologies). Quantitative polymerase chain reaction was performed using inventoried TaqMan assays for respective target genes and housekeeping control genes (18S) on the QuantStudio 6 Flex Real -Time PCR System (Life Technologies).
Fold change in gene expression was analyzed using the delta delta Ct method.

[2] = Body weight / tolerability in flank tumor study; assay type: in vivo; design: weight of flank tumor mice: unit not given here; details: for weight of flank tumor mice: individual mice
Experimental: We next examined whether QST treatment alone or in combination with IR would be effective in slowing tumor growth in a flank model of GBM (U87). Tumor-bearing mice receiving IR were treated with 2-Gy fractions on Monday, Wednesday, and Friday (MWF) 2 hours after dosing with either vehicle solution or QST (10 mg/kg), for a total dose of 6 Gy. Following completion of IR, mice continued to receive vehicle or QST until the tumors reached the maximum volume threshold (Figure 5C). […] The mean tumor volume in mice with combination treatment was approximately 4.5-fold less than that in vehicle-treated mice at study completion (Figure 5D). […]
treated with 2 Gy of ionizing radiation on MWF for a total 6 Gy (3 doses). Ionizing radiation was administered with the RS2000 series biological research irradiator (Rad Source Technologies).
Treatment of Flank-Implanted Mice with QST and/or Radiation
Implanted flank tumors were allowed to grow until the tumor size reached 100 mm3 volume. Mice were randomized into groups before treatment and underwent treatment on MWF for the entire duration of the experiment until the tumor volumes exceeded 2000 mm3. Treatment groups included vehicle (50% PEG-300), QST alone (10 mg/kg), flank IR treatment with vehicle (2 Gy), and flank IR treatment (2 Gy) with QST (10 mg/kg). For mice receiving IR treatment with or without QST, mice were treated with 2 Gy on MWF for a total 6 Gy during the first week of treatment. QST was administered to mice through intraperitoneal injections 2 hours before flank tumor radiation treatment. Upon completion of the radiation regimen, IR-treated mice subsequently received QST or vehicle alone for the rest of the experiment. Tumor growth and treatment response were monitored by manually measuring the tumor area twice per week starting at 13 days after implantation. Upon reaching the tumor volume threshold (2000 mm3), mice were sacrificed, and plasma and tissue samples were harvested for PD and PK analyses 2 hours after treatment with a final dose of QST (10 mg/kg). […]

BT145 cells = assay: Annexin V / ViaDye Red flow cytometry (apoptosis); assay type: cell-based, human; details: 75 nM QST
Description: (§1) For apoptosis analysis, the Dead Cell Apoptosis Kit with Annexin V FITC and Propidium Iodide for Flow Cytometry (Thermo Fisher Scientific, V13242) was followed using the manufacturer instructions, with the exception that we employed ViaDye Red Fixable Viability Dye Kit (Cytek, SKU R7-60008) instead of propidium iodide to label necrotic cells. Samples were run on the AURORA 3L 24 color spectrum cytometers (Cytek), unmixed by SpectroFlo application, and analyzed with FlowJo 10.8.1 software (Beckton Dickinson). Recommended negative controls for flow cytometry include (1) no Annexin V FITC and no ViaDye Red, (2) Annexin V FITC alone, and (3) ViaDye Red alone. The following gating strategy was used: debris population was excluded as the subset of cells with low forward scatter in the forward scatter area versus side scatter area plot. After excluding the debris, cells were gated on the Annexin versus ViaDye Red log plot with the classification as live (Annexin V negative, ViaDye Red negative), early apoptotic (Annexin V positive, ViaDye Red negative), late apoptotic (Annexin V positive, ViaDye Red positive), or necrotic (Annexin V negative, ViaDye Red positive). The frequency of the different cell subsets was reported as frequency on the total cell population, excluding debris. […]

GB126 cells = assay: Annexin V / ViaDye Red flow cytometry (apoptosis); assay type: cell-based, human; details: 86 nM QST
Description: as §1

[3] = representative plot, quadrant assigned by inference

Which IC50 (HDAC1) does the source give for Cn1cc(CNCC2CCN(c3ncc(C(=O)NO)cn3)CC2)c2ccccc21 [QST, quisinostat] here?
Its IC50 is […].

And the “Cell viability (fraction of DMSO control)” value ([1]; QST 10 nM (log[nM] 1))?
Its value is 0.6995 and 0.7125.

And the “Cell viability (fraction of DMSO control)” value ([1]; QST 25 nM (log[nM] 1.39794))?
Its value is 0.5597 and 0.5623.

What about the “Cell viability (fraction of DMSO control)” value ([1]; QST 50 nM (log[nM] 1.69897)) of the same compound?
Its value is 0.4582 and 0.5002.

And the “Cell viability (fraction of DMSO control)” value ([1]; QST 100 nM (log[nM] 2))?
Its value is 0.3562 and 0.4332.

And the “sensitivity of primary human astrocytes to QST compared with GSCs” value ([1]; in vitro dose response assay)?
Its value is “equally sensitive”.

What about the “qPCR CECR2 expression” value (orthotopic GB126 tumors; Combo (QST + IR)) of the same compound?
Its value is 90.297 and 227.304 and 107.431.

And the “qPCR GABRA2 expression” value (orthotopic GB126 tumors; Combo (QST + IR))?
Its value is 62.6009 and 92.8255 and 56.6887.

What about the “qPCR SCN3A expression” value (orthotopic GB126 tumors; Combo (QST + IR)) of the same compound?
The value was 28.0147 and 63.295 and 75.3722.

And the “qPCR BDNF expression” value (orthotopic GB126 tumors; QST + IR)?
Its value is 14.0587 and 9.35 and 2.8459.

And the “qPCR KCNQ3 expression” value (orthotopic GB126 tumors; QST + IR)?
The value was 9.67 and 10.8552 and 27.8625.

And the “qPCR NGFR expression” value (orthotopic GB126 tumors; QST + IR)?
The value was 3.525 and 9.249 and 10.5627.

And the “qPCR BDNF expression” value (orthotopic GB126 tumors; QST)?
The value was 5.022 and 6.518 and 12.9199.

What about the “qPCR CECR2 expression” value (orthotopic GB126 tumors; QST) of the same compound?
Its value is 38.4564 and 79.55 and 112.554.

What about the “qPCR GABRA2 expression” value (orthotopic GB126 tumors; QST) of the same compound?
Its value is 1.543 and 82.6227 and 31.8541.

What about the “qPCR KCNQ3 expression” value (orthotopic GB126 tumors; QST) of the same compound?
The value was 1.23 and 4.886 and 2.677.

What about the “qPCR NGFR expression” value (orthotopic GB126 tumors; QST) of the same compound?
Its value is 13.22 and 5.955 and 12.7613.

What about the “qPCR SCN3A expression” value (orthotopic GB126 tumors; QST) of the same compound?
The value was 6.113 and 76.4987 and 9.293.

What about the “tolerability (mean weights)” value ([2]; 10 mg/kg IP MWF, alone and in combination with IR, flank tumor study) of the same compound?
The value was “well tolerated”.

And the “weight of flank tumor mice” value ([2]; day 13 post-injection)?
The value was 29.8.

And the “weight of flank tumor mice” value ([2]; day 22 post-injection)?
Its value is 29.9 (2×) and 27.3 and 29.1 and 26 (2×) and 31.1 and 29.8 and 28 and 28.9.

What about the “Apoptotic, Annexin+ ViaDye - (%)” value (BT145 cells; replicates) of the same compound?
Its value is 60% and 53.4% and 59.8%.

And the “Dead, Annexin+ ViaDye + (%)” value (BT145 cells; replicates)?
Its value is 5.66% and 6.66% and 4.49%.

What about the “ViaDyeRed / Annexin V-FITC dot plot quadrant, live (Annexin-, ViaDye-)” value (BT145 cells; [3]) of the same compound?
Its value is 39.3.

What about the “ViaDyeRed / Annexin V-FITC dot plot quadrant, necrotic (Annexin-, ViaDye+)” value (BT145 cells; [3]) of the same compound?
The value was 0.65.

What about the “Apoptotic, Annexin+ ViaDye - (%)” value (GB126 cells; replicates) of the same compound?
The value was 9.54% and 12.5% and 8.59%.

And the “Dead, Annexin+ ViaDye + (%)” value (GB126 cells; replicates)?
Its value is 12.7% and 14.5% and 9.91%.

What about the “ViaDyeRed / Annexin V-FITC dot plot quadrant, live (Annexin-, ViaDye-)” value (GB126 cells; [3]) of the same compound?
The value was 71.9.

And the “ViaDyeRed / Annexin V-FITC dot plot quadrant, necrotic (Annexin-, ViaDye+)” value (GB126 cells; [3])?
Its value is 5.85.
